Where no end group is shown, it is not given here.
Assays:
[1] = system: PMN; experiment: PMN viability by LDH release
Description: PMN viability after exposure to NIP (seq id no:1) or control peptide for varying amounts of time was assessed by measuring LDH release using a commercially available kit (Sigma).

[2] = system: PMN; experiment: PMN cytosolic calcium concentration (Indo-loaded PMN); format: cell-based, human
[3] = system: polymorphonuclear neutrophils (PMN); format: cell-based; conditions: 10 nM human recombinant C5a; cells concomitantly exposed to peptide and agonist; read-out: IC50 for C5a-induced chemotaxis
Description: Whole blood was obtained from a normal human volunteer population and PMN were isolated by ficoll-hypaque gradient centrifugation followed dextran sedimentation, as described by Cooper et al., (1991).
The degree of inhibition of PMN chemotaxis by natural purified inhibitor or synthetic peptides was determined as described by Cooper et al. (1991) using 100 nM formyl-methionyl-leucyl-phenylalanine (fMLP), 10 nM human recombinant C5a or 10 nM leukotriene B4 and multiwell chemotaxis chambers (Neuroprobe Inc., Bethesda, Md.) employing nitrocellulose membranes. Isoelectric focused fractions or HPLC elution fractions were diluted 1:1000 in a final concentration of the above agonists. Controls included buffer alone or C5a diluted in buffer alone.
22 μl of samples were placed in bottom wells of the chemotaxis chamber, a nitrocellulose membrane with 3 μm pores was overlaid as was a rubber gasket. […] Chemotaxis was assessed by comparing the maximal distance migrated to agonist alone or in the presence of an irrelevant peptide (μm minus migration to buffer alone) and comparing to the distance migrated to agonist plus elution fractions or synthetic peptides. The percentage of total cells migrating 10 μm increments from 0 to 120 μm was also determined by image analysis (Olympus Instruments) and treatment groups were compared to controls. […]

Compound: SNRGFAYFDEG [Control peptide, Ser-Asn-Arg-Gly-Phe-Ala-Tyr-Phe-Asp-Glu-Gly, reference compound]
- [LDH] of supernatant ([1]; 5 μM, 60 min exposure): 39.2 ± 6.5

Compound: pertussis toxin
- ionomycin-induced rise in cytosolic calcium ([2]; pertussis toxin pretreatment): no effect
- rise in cytosolic calcium concentration induced by 1 μM FMLP ([2]; pertussis toxin pretreatment): Attenuation

Compound: COc1cc(N(CC(=O)OCOC(C)=O)CC(=O)OCOC(C)=O)c2nc(COc3cc(C)ccc3N(CC(=O)OCOC(C)=O)CC(=O)OCOC(C)=O)ccc2c1 [Quin 2 AM]
- buffering of rises in cytosolic calcium concentrations ([2]; 10 μM, after 1 μM fMLP stimulation): significantly buffered

Compound: EGSYFFGDNA [NIP-Arg, Glu-Gly-Ser-Tyr-Phe-Phe-Gly-Asp-Asn-Ala]
- IC50 [3]: 6 µM

Compound: REGSYFFGDNA [NIP, Arg-Glu-Gly-Ser-Tyr-Phe-Phe-Gly-Asp-Asn-Ala]
- [LDH] of supernatant ([1]; 5 μM, 5 min exposure): 37.2 ± 6.3
- [LDH] of supernatant ([1]; 5 μM, 15 min exposure): 40.8 ± 3.7
- [LDH] of supernatant ([1]; 5 μM, 30 min exposure): 30.2 ± 4.25
- [LDH] of supernatant ([1]; 5 μM, 60 min exposure): 35 ± 5.5
- cellular viability as determined by LDH release ([1]; concentrations that inhibited chemotaxis and oxidant production): did not significantly alter
- IC50 [3]: 2 µM

Compound: Triton [reference compound]
- [LDH] of supernatant ([1]; 0.1%, 5 min exposure): 252 ± 6.5

— patent US5861475A, “Compositions and methods for the inhibition of phagocytes” (Research Corporation Technologies, Inc., priority 1996, dated 1999)
